Measured values as given in PubChem BioAssay (NCI).
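Step 1: Grow cells in 96-well plates. Step 2: Expose to compound for 48 hours at 5 concentrations. Step 3: Interpolate endpoints linearly; if unreached, use highest concentration. Here, GI50 denotes the concentration required for 50% inhibition of growth. TGI marks complete inhibition of growth.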

Legend:
Test in all cases: NCI anticancer screen, dose series, 48 h
[1] = tested on: CAKI-1 renal
[2] = tested on: HCT-15 colon
[3] = tested on: HCC-2998 colon
[4] = tested on: SN12C renal
[5] = tested on: SF-295 CNS
[6] = tested on: RPMI-8226 leukemia
[7] = tested on: NCI-H23 lung
[8] = tested on: U251 CNS
[9] = tested on: CCRF-CEM leukemia
[10] = tested on: NCI/ADR-RES ovarian
[11] = tested on: SF-268 CNS
[12] = tested on: 786-0 renal
[13] = tested on: SR leukemia
[14] = tested on: MDA-MB-231 breast
[15] = tested on: TK-10 renal
[16] = tested on: K-562 leukemia
[17] = tested on: HL-60(TB) leukemia
[18] = tested on: NCI-H460 lung
[19] = tested on: SK-OV-3 ovarian
[20] = tested on: SK-MEL-2 melanoma
[21] = tested on: IGROV1 ovarian
[22] = tested on: COLO 205 colon
[23] = tested on: HOP-92 NSCLC
[24] = tested on: SK-MEL-5 melanoma
[25] = tested on: SNB-19 CNS
[26] = tested on: MALME-3M melanoma
[27] = tested on: OVCAR-8 ovarian
[28] = tested on: OVCAR-3 ovarian
[29] = tested on: LOX IMVI melanoma
[30] = tested on: UACC-62 melanoma
[31] = tested on: HS 578T breast
[32] = tested on: NCI-H522 lung
[33] = tested on: MOLT-4 leukemia
[34] = tested on: MDA-MB-435
[35] = tested on: A498 renal
[36] = tested on: KM12 colon
[37] = tested on: HOP-62 NSCLC
[38] = tested on: SF-539 CNS
[39] = tested on: UO-31 renal
[40] = tested on: SNB-75 CNS
[41] = tested on: OVCAR-5 ovarian
[42] = tested on: HCT-116 colon
[43] = tested on: T-47D breast
[44] = tested on: MCF7 breast
[45] = tested on: SK-MEL-28 melanoma
[46] = tested on: HT29 colon
[47] = tested on: ACHN renal
[48] = tested on: M14 melanoma
[49] = tested on: PC-3 prostate
[50] = tested on: DU-145 prostate
[51] = tested on: EKVX NSCLC
[52] = tested on: NCI-H226 lung
[53] = tested on: SW-620 colon
[54] = tested on: UACC-257 melanoma
[55] = tested on: OVCAR-4 ovarian
[56] = tested on: RXF 393 renal
[57] = tested on: A549 NSCLC
[58] = tested on: MDA-MB-468 breast
[59] = tested on: BT-549 breast

COc1cc2oc(-c3cccc(C(=O)Nc4ccc(Cl)cc4)c3)cc(=O)c2c(OCCNC(=O)[C@H](CO)NC(=O)OC(C)(C)C)c1OC
GI50 [1]: 5.8 µM | TGI [1]: > 100 µM | GI50 [2]: 7.43 µM | TGI [2]: > 100 µM | GI50 [3]: 15.5 µM | TGI [3]: 74 µM | GI50 [4]: 8.47 µM | TGI [4]: > 100 µM | GI50 [5]: 12.4 µM | TGI [5]: 53.2 µM | GI50 [6]: 2.85 µM | TGI [6]: > 100 µM | GI50 [7]: 14.9 µM | TGI [7]: > 100 µM | GI50 [8]: 17.8 µM | TGI [8]: > 100 µM | GI50 [9]: 5.54 µM | TGI [9]: > 100 µM | GI50 [10]: 51.4 µM | TGI [10]: > 100 µM | GI50 [11]: 21.5 µM | TGI [11]: > 100 µM | GI50 [12]: 19.7 µM | TGI [12]: > 100 µM | GI50 [13]: 3.01 µM | TGI [13]: 18.2 µM | GI50 [14]: 4.7 µM | TGI [14]: 33.9 µM | GI50 [15]: 19.9 µM | TGI [15]: > 100 µM | GI50 [16]: 4.23 µM | TGI [16]: > 100 µM | GI50 [17]: 5.41 µM | TGI [17]: 22.1 µM | GI50 [18]: 6.48 µM | TGI [18]: > 100 µM | GI50 [19]: 79.2 µM | TGI [19]: > 100 µM | GI50 [20]: 15.4 µM | TGI [20]: > 100 µM | GI50 [21]: 10.7 µM | TGI [21]: > 100 µM | GI50 [22]: 7.16 µM | TGI [22]: 71.6 µM | GI50 [23]: 4.24 µM | TGI [23]: > 100 µM | GI50 [24]: 5.48 µM | TGI [24]: 19.6 µM | GI50 [25]: 28.8 µM | TGI [25]: > 100 µM | GI50 [26]: 11 µM | TGI [26]: 51.5 µM | GI50 [27]: 5.78 µM | TGI [27]: > 100 µM | GI50 [28]: 10.8 µM | TGI [28]: > 100 µM | GI50 [29]: 3.82 µM | TGI [29]: 20.7 µM | GI50 [30]: 20.3 µM | TGI [30]: > 100 µM | GI50 [31]: 8.01 µM | TGI [31]: 94.6 µM | GI50 [32]: 5.18 µM | TGI [32]: > 100 µM | GI50 [33]: 3.2 µM | TGI [33]: 21.8 µM | GI50 [34]: 12.4 µM | TGI [34]: 42.6 µM | GI50 [35]: 27.2 µM | TGI [35]: 77.9 µM | GI50 [36]: 28.7 µM | TGI [36]: > 100 µM | GI50 [37]: 16.1 µM | TGI [37]: > 100 µM | GI50 [38]: 12.1 µM | TGI [38]: 45 µM | GI50 [39]: 19.9 µM | TGI [39]: > 100 µM | GI50 [40]: 8.45 µM | TGI [40]: > 100 µM | GI50 [41]: 8.01 µM | TGI [41]: > 100 µM | GI50 [42]: 6.03 µM | TGI [42]: > 100 µM | GI50 [43]: 5.63 µM | TGI [43]: > 100 µM | GI50 [44]: 10.1 µM | TGI [44]: > 100 µM | GI50 [45]: 9.5 µM | TGI [45]: 28.2 µM | GI50 [46]: 6.92 µM | TGI [46]: 57.4 µM | GI50 [47]: 19.5 µM | TGI [47]: > 100 µM | GI50 [48]: 8.53 µM | TGI [48]: 55.6 µM | GI50 [49]: 6.82 µM | TGI [49]: > 100 µM | GI50 [50]: 17.8 µM | TGI [50]: > 100 µM | GI50 [51]: 9.89 µM | TGI [51]: > 100 µM | GI50 [52]: 13.8 µM | TGI [52]: > 100 µM | GI50 [53]: 30.1 µM | TGI [53]: > 100 µM | GI50 [54]: 12.6 µM | TGI [54]: 27.8 µM | GI50 [55]: 9.86 µM | TGI [55]: > 100 µM | GI50 [56]: 4.2 µM | TGI [56]: 22 µM | GI50 [57]: 10.5 µM | TGI [57]: > 100 µM | GI50 [58]: 13.9 µM | TGI [58]: 35 µM | GI50 [59]: 3.06 µM | TGI [59]: 19.9 µM

COc1ccc(NC(=O)Cn2c(/C=C/c3cccc(Br)c3)nc3ccccc3c2=O)cc1
GI50 [1]: 14 µM | TGI [1]: > 36 µM | GI50 [2]: > 36 µM | TGI [2]: > 36 µM | GI50 [3]: > 36 µM | TGI [3]: > 36 µM | GI50 [4]: 14.8 µM | TGI [4]: > 36 µM | GI50 [5]: 6.79 µM | TGI [5]: > 36 µM | GI50 [6]: > 36 µM | TGI [6]: > 36 µM | GI50 [7]: 10.5 µM | TGI [7]: > 36 µM | GI50 [8]: 4.68 µM | TGI [8]: 13.5 µM | GI50 [9]: > 36 µM | TGI [9]: > 36 µM | GI50 [10]: 7.1 µM | TGI [10]: > 36 µM | GI50 [11]: 13.9 µM | TGI [11]: > 36 µM | GI50 [12]: 4.9 µM | TGI [12]: 14.8 µM | GI50 [13]: 1.06 µM | TGI [13]: > 36 µM | GI50 [14]: 1.93 µM | TGI [14]: 8.8 µM | GI50 [15]: 5.4 µM | TGI [15]: 13.4 µM | GI50 [16]: > 36 µM | TGI [16]: > 36 µM | GI50 [17]: > 36 µM | TGI [17]: > 36 µM | GI50 [18]: 15.7 µM | TGI [18]: > 36 µM | GI50 [19]: 7.25 µM | TGI [19]: 27.5 µM | GI50 [20]: > 36 µM | TGI [20]: > 36 µM | GI50 [21]: > 36 µM | TGI [21]: > 36 µM | GI50 [22]: > 36 µM | TGI [22]: > 36 µM | GI50 [23]: 8.66 µM | TGI [23]: 32.6 µM | GI50 [24]: > 36 µM | TGI [24]: > 36 µM | GI50 [25]: 11.4 µM | TGI [25]: > 36 µM | GI50 [26]: 6.56 µM | TGI [26]: 27 µM | GI50 [27]: 10.5 µM | TGI [27]: > 36 µM | GI50 [28]: 10.6 µM | TGI [28]: > 36 µM | GI50 [29]: 3.02 µM | TGI [29]: > 36 µM | GI50 [30]: > 36 µM | TGI [30]: > 36 µM | GI50 [31]: 2.73 µM | TGI [31]: 30.8 µM | GI50 [32]: 17.6 µM | TGI [32]: > 36 µM | GI50 [33]: > 36 µM | TGI [33]: > 36 µM | GI50 [34]: > 36 µM | TGI [34]: > 36 µM | GI50 [35]: 9.71 µM | TGI [35]: 32.5 µM | GI50 [36]: > 36 µM | TGI [36]: > 36 µM | GI50 [37]: 6.47 µM | TGI [37]: 21 µM | GI50 [38]: 2.94 µM | TGI [38]: 8.06 µM | GI50 [39]: 4.41 µM | TGI [39]: 15.4 µM | GI50 [40]: 0.801 µM | TGI [40]: 3.27 µM | GI50 [41]: 15.6 µM | TGI [41]: > 36 µM | GI50 [42]: 5.67 µM | TGI [42]: > 36 µM | GI50 [43]: > 36 µM | TGI [43]: > 36 µM | GI50 [44]: 8.56 µM | TGI [44]: > 36 µM | GI50 [45]: > 36 µM | TGI [45]: > 36 µM | GI50 [46]: > 36 µM | TGI [46]: > 36 µM | GI50 [47]: 1.75 µM | TGI [47]: 12.2 µM | GI50 [48]: 31.8 µM | TGI [48]: > 36 µM | GI50 [49]: > 36 µM | TGI [49]: > 36 µM | GI50 [50]: 13.5 µM | TGI [50]: > 36 µM | GI50 [51]: > 36 µM | TGI [51]: > 36 µM | GI50 [52]: 1.69 µM | TGI [52]: 9.64 µM | GI50 [53]: > 36 µM | TGI [53]: > 36 µM | GI50 [54]: > 36 µM | TGI [54]: > 36 µM | GI50 [55]: 2.17 µM | TGI [55]: 9.94 µM | GI50 [56]: 4.39 µM | TGI [56]: 17.6 µM | GI50 [57]: 11.4 µM | TGI [57]: > 36 µM | GI50 [58]: 6.25 µM | TGI [58]: > 36 µM | GI50 [59]: 3.62 µM | TGI [59]: > 36 µM
